In ChEMBL document CHEMBL1201862, “PubChem BioAssay data set” (2004):
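Grown in 96-well plates, cells were treated for 48 hours with each compound at five concentrations. Insufficient inhibition: endpoint recorded as highest concentration tested. The concentration for 50% growth inhibition is given as GI50.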 Active and inactive are the calls of the source. Cut-off read from the data, not from the text of the source: active = GI50 up to about 1.1 µM and inactive = higher.

What was measured:
Test in all cases: NCI anticancer screen, dose series, 48 h
[1] = system: HOP-62
[2] = system: MDA-MB-435
[3] = system: IGROV-1
[4] = system: NCI/ADR-RES
[5] = system: CCRF-CEM
[6] = system: A549
[7] = system: PC-3
[8] = system: OVCAR-8
[9] = system: LOX IMVI
[10] = system: SN12C
[11] = system: HL-60
[12] = system: SK-MEL-5
[13] = system: SF-539
[14] = system: EKVX
[15] = system: SF-295
[16] = system: M14
[17] = system: HCT-116
[18] = system: OVCAR-5
[19] = system: SNB-19
[20] = system: HCC 2998
[21] = system: DU-145
[22] = system: HOP-92
[23] = system: TK-10
[24] = system: UACC-257
[25] = system: HCT-15
[26] = system: Hs-578T
[27] = system: NCI-H522
[28] = system: UACC-62
[29] = system: U-251
[30] = system: UO-31
[31] = system: OVCAR-3
[32] = system: CAKI-1
[33] = system: RPMI-8226
[34] = system: T47D
[35] = system: K562
[36] = system: SK-MEL-28
[37] = system: NCI-H23
[38] = system: MCF7
[39] = system: NCI-H460
[40] = system: HT-29
[41] = system: SW-620
[42] = system: MDA-N
[43] = system: KM12
[44] = system: RXF 393
[45] = system: SK-OV-3
[46] = system: SF-268
[47] = system: MOLT-4
[48] = system: MDA-MB-231
[49] = system: ACHN
[50] = system: Malme-3M
[51] = system: NCI-H226
[52] = system: BT-549
[53] = system: A498
[54] = system: SK-MEL-2
[55] = system: SNB-75
[56] = system: COLO 205
[57] = system: 786-0
[58] = system: OVCAR-4
[59] = system: SR

In the case of O=C(O)CN(CC(=O)O)C1CCCCC1N(CC(=O)O)CC(=O)NCCN=C=S (stereo unspecified), the GI50 [1] is reported as > 100 µM (inactive), the GI50 [2] is reported as > 100 µM (inactive) and the GI50 [3] is reported as > 100 µM (inactive). For the same compound, the GI50 [4] was > 100 µM (inactive), the GI50 [5] was > 100 µM (inactive) and the GI50 [6] was > 100 µM (inactive). For the same compound, the GI50 [7] was > 100 µM (inactive), the GI50 [8] was > 100 µM (inactive) and the GI50 [9] was > 100 µM (inactive). The GI50 [10] was > 100 µM (inactive), the GI50 [11] was > 100 µM (inactive) and the GI50 [12] was > 100 µM (inactive). The GI50 [13] was > 100 µM (inactive), the GI50 [14] was > 100 µM (inactive) and the GI50 [15] was > 100 µM (inactive). For the same compound, the GI50 [16] was > 100 µM (inactive), the GI50 [17] was > 100 µM (inactive) and the GI50 [18] was > 100 µM (inactive). For the same compound, the GI50 [19] was > 100 µM (inactive), the GI50 [20] was > 100 µM (inactive) and the GI50 [21] was > 100 µM (inactive). For the same compound, the GI50 [22] was > 100 µM (inactive), the GI50 [23] was > 100 µM (inactive) and the GI50 [24] was > 100 µM (inactive). The GI50 [25] was > 100 µM, the GI50 [26] was > 100 µM (inactive) and the GI50 [27] was > 100 µM (inactive). For the same compound, the GI50 [28] was > 100 µM (inactive), the GI50 [29] was > 100 µM (inactive) and the GI50 [30] was > 100 µM (inactive). For the same compound, the GI50 [31] was > 100 µM (inactive), the GI50 [32] was > 100 µM (inactive) and the GI50 [33] was > 100 µM (inactive). The GI50 [34] was > 100 µM (inactive), the GI50 [35] was > 100 µM (inactive) and the GI50 [36] was > 100 µM (inactive). For the same compound, the GI50 [37] was > 100 µM (inactive), the GI50 [38] was > 100 µM (inactive) and the GI50 [39] was > 100 µM (inactive). The GI50 [40] was > 100 µM (inactive), the GI50 [41] was > 100 µM (inactive) and the GI50 [42] was > 100 µM (inactive). For the same compound, the GI50 [43] was > 100 µM (inactive), the GI50 [44] was > 100 µM (inactive) and the GI50 [45] was > 100 µM (inactive). For the same compound, the GI50 [46] was > 100 µM (inactive), the GI50 [47] was > 100 µM (inactive) and the GI50 [48] was > 100 µM (inactive). For the same compound, the GI50 [49] was > 100 µM (inactive), the GI50 [50] was > 100 µM (inactive) and the GI50 [51] was > 100 µM (inactive). For the same compound, the GI50 [52] was > 100 µM (inactive), the GI50 [53] was > 100 µM (inactive) and the GI50 [54] was > 100 µM (inactive).

With CC(C)(C)OC(=O)CN1CCNCCN(CC(=O)OC(C)(C)C)CC1 the GI50 [1] was > 100 µM (inactive), the GI50 [3] was > 100 µM (inactive) and the GI50 [4] was > 100 µM (inactive). For the same compound, the GI50 [5] was > 100 µM (inactive), the GI50 [6] was > 100 µM (inactive) and the GI50 [7] was > 100 µM (inactive). The GI50 [8] was > 100 µM (inactive), the GI50 [9] was > 100 µM (inactive) and the GI50 [10] was > 100 µM (inactive). For the same compound, the GI50 [11] was 19.2 µM (inactive), the GI50 [55] was 12.8 µM (inactive) and the GI50 [12] was > 100 µM (inactive). The GI50 [13] was > 100 µM (inactive), the GI50 [14] was > 100 µM (inactive) and the GI50 [15] was > 100 µM (inactive). For the same compound, the GI50 [56] was > 100 µM (inactive), the GI50 [57] was > 100 µM (inactive) and the GI50 [16] was > 100 µM (inactive). For the same compound, the GI50 [17] was > 100 µM (inactive), the GI50 [18] was > 100 µM (inactive) and the GI50 [19] was > 100 µM (inactive). The GI50 [20] was 40.7 µM (inactive), the GI50 [21] was > 100 µM (inactive) and the GI50 [22] was > 100 µM (inactive). The GI50 [23] was > 100 µM (inactive), the GI50 [24] was > 100 µM (inactive) and the GI50 [25] was > 100 µM. For the same compound, the GI50 [26] was > 100 µM (inactive), the GI50 [27] was 56.9 µM (inactive) and the GI50 [28] was > 100 µM (inactive). The GI50 [58] was > 100 µM (inactive), the GI50 [30] was > 100 µM (inactive) and the GI50 [31] was > 100 µM (inactive). The GI50 [32] was > 100 µM (inactive), the GI50 [33] was > 100 µM (inactive) and the GI50 [34] was > 100 µM (inactive). The GI50 [35] was 54.5 µM (inactive), the GI50 [38] was > 100 µM (inactive) and the GI50 [39] was > 100 µM (inactive). For the same compound, the GI50 [40] was 44.3 µM (inactive), the GI50 [42] was > 100 µM (inactive) and the GI50 [43] was > 100 µM (inactive). The GI50 [45] was > 100 µM (inactive), the GI50 [47] was > 100 µM (inactive) and the GI50 [48] was > 100 µM (inactive). The GI50 [49] was > 100 µM (inactive), the GI50 [50] was 0.731 µM (active) and the GI50 [51] was > 100 µM (inactive). For the same compound, the GI50 [52] was > 100 µM (inactive), the GI50 [53] was > 100 µM (inactive) and the GI50 [54] was > 100 µM (inactive). The GI50 [59] was > 100 µM (inactive).
